For assay [1], the target named is T1, L-type calcium channels in A10 cells (Rattus norvegicus, UniProt P22002).
T1 construct: which endogenously expresses L-type calcium channels; host or cells: A10 rat embryonic thoracic aorta smooth muscle cells
Description: L-type Ca2+ channel blocking potency in A10 cells (FLIPR). Format: cell-based. The following applies: read-out: FLPA10 IC50. As to the method:
Measurement of L-type Ca^2+ Channel Blocking Potencies of Compounds in A10 Cells
Calcium flux through voltage-sensitive calcium channels was assessed by time-resolved monitoring of the fluorescence of pre-loaded calcium-sensitive dyes using FLIPR, a fluorescent image plate reader (Molecular Devices Co.). The A10 smooth muscle cell line derived from embryonic thoracic aorta of the DBIX rat (ATCC, CRL-1476) which endogenously expresses L-type calcium channels. The growth media for A10 cells was Ham's F12/DME high glucose (Irvine Scientific, 9052), supplemented with 20% fetal bovine serum (HyClone Labs, A-1115-L), and 1% each of L-glutamine and antibiotic-antimycotic (same source as above).
Cells were grown to confluency and replated on black-sided 96-well plates (Costar, 3603) for use in FLIPR. Two days after replating, growth media was removed and cells were loaded at 37° C. with 100 μL media containing 1 μM Oregon Green 488 Bapta-1 dye (Molecular Probes, O-6807) for 1 to 3 hours. The dye-containing media was then washed away with buffer (composition in mM: 1.25 CaCl2, 1.2 MgSO4, 11 glucose, 10 HEPES, 3.0 KCl, 137.0 NaCl, pH 7.4 with Tris base) in a Denley Cellwash (Labsystems, CW018B). The residual buffer volume was adjusted to 50 μL. A 5 minute drug-pre-incubation period at 35° C. was initiated when 50 μL of drug-containing buffer was pipetted into the cell plate with the 96-well pipettor integrated in the FLIPR apparatus. Fluorescent counts were monitored at 20 second intervals for 360 seconds, beginning 60 seconds prior to the delivery of drug-containing buffer. Following drug addition, 100 μL aliquots of a high K^+, depolarizing stimulus (composition in mM: 1.25 CaCl2, 1.2 MgSO4, 11 glucose, 10 HEPES, 140.0 KCl, pH 7.4 with Tris base) were added to each well, and fluorescence was monitored at 1 second intervals for 120 seconds beginning 10 seconds prior to the stimulus addition. CCD camera exposure time was 0.4 seconds, laser excitation was at 488 nm with a power of 0.2-0.5W, and a 510 to 560 nm bandpass interference filter preceded the camera.
Data was analyzed as a summation of fluorescent counts above basal during the stimulation period (an approximation of area under the curve), after normalizing the data with a spatial uniformity correction (for variations in laser illumination and cell density) and a negative control correction (zero calcium increase defined as the fluorescence reading in the presence of saturating pharmacologic block of the respective calcium channel). Drug effects were expressed as percent inhibition of fluorescence from an average of 8 K^+-stimulated wells which were pre-treated in the drug incubation period with buffer only. In the A10 cells, the pharmacologic agent used to define zero calcium influx was nitrendipine (RBI, N-144) at a final concentration of 1.0×10^−6 M.

The target of assay [2] is T2, N-type calcium channels in IMR-32 cells (Homo sapiens, UniProt Q00975).
T2 construct: host or cells: IMR-32 cells differentiated with dibutyryl cAMP and bromodeoxyuridine
Kind of assay: N-type Ca2+ channel blocking potency in IMR-32 cells using Indo-1. The following applies: for IC50: IMR-32 cells, estimated from two data points, read-out: IMR32 IC50 (estimated IC50 values based on two data points); for inhibition at 1 µM / inhibition at 10 µM: IMR-32, IMR-32 cells; for inhibition at 1 µM: read-out: IMR32 % blockage at 1 μM; for inhibition at 10 µM: read-out: IMR32 % blockage at 10 μM. Format: cell-based. As for the experimental part: Measurement of N-type Ca^2+ Channel Blocking Potencies of Compounds in IMR-32 Cells Using the Fluorescent Ca^2+ Indicator Indo-1
IMR-32 cells are a human tumoral cell line of neural origin. […] Calcium flux into these cells may be induced by stimulation with elevated potassium concentrations. The L-channel component of calcium flux may be blocked by adding 5 μM nitrendipine. The remaining component of calcium entry into the IMR-32 cells is due to calcium flux through N-type calcium channels. Intracellular calcium concentrations are measured using the fluorescent calcium indicator Indo-1. The effect of drug concentration on calcium uptake is studied.
The IMR-32 cell line was obtained from the American Type Culture Collection (Rockville, Md.). Cells were grown in Eagle's Minimum Essential Medium with Earle's salts supplemented with 10% fetal bovine serum, 2 mM L-Gln and antibiotic/antimycotic mixture (Gibco). At approximately 80% confluency, differentiation was induced by the addition of 1 mM dibutyryl cAMP and 2.5 μM bromodeoxyuridine to the medium. After 7 to 13 days of differentiation, cells were detached using 0.5 mM EDTA and loaded with 5 μM Indo-1 acetoxymethyl ester (Molecular Probes, Eugene, Oreg.) at 30° C. for 45 minutes. Loaded cells were washed twice, resuspended (˜10^7 cells/mL) in assay buffer (10 mM HEPES/Tris pH 7.4 in Hank's Balanced Salt Solution without bicarbonate or phenol red containing 0.5% bovine serum albumin) and kept on ice until use. Fluorescence measurements were carried out in a Photon Technology International (PTI, South Brunswick, N.J.) Model RF-F3004 spectrofluorometer with dual emission monochromators using excitation at 350 nm and emission at 400 and 490 nm. The instrument was equipped with a thermostated cuvette holder with stirring capabilities as well as with a computer-controlled pump which allowed for reagent addition during measurement. Instrument control and data collection was done by PTI's OSCAR software running on an IBM compatible computer. Different concentrations of the test compounds (60 μL in dimethyl sulfoxide) were added to 5.94 mL of assay buffer containing approximately 3×10^6 loaded cells, and 5 μM Nitrendipine (in 30 μL EtOH) to block L-type Ca^2+ channels. Samples were incubated for 10 minutes at 30° C. and the aliquot into three 10×10 mm disposable acrylic cuvettes. Emission signals at 400 and 490 nm were acquired from each cuvette at 30° C. for 50 seconds. At 20 seconds after the start of reading, cells were depolarized by the addition of 160 μL of stimulation solution (1 M KCl, 68 mM CaCl2) to the cuvette via the computer-controlled pump. Ratio of dual emission signals (400/490 nm), which is proportional to intracellular Ca^2+ concentration, was plotted against time, and the difference between maximal response after stimulation and basal value (before stimulation) was determined. Values obtained in this way were plotted as a function of drug concentration. IC50 values of test compounds were calculated by fitting a four-parameter logistic function to the data using the least squares method.

Counter-ions that a name gives are not always drawn.

T2 sequence (Q00975 whole entry): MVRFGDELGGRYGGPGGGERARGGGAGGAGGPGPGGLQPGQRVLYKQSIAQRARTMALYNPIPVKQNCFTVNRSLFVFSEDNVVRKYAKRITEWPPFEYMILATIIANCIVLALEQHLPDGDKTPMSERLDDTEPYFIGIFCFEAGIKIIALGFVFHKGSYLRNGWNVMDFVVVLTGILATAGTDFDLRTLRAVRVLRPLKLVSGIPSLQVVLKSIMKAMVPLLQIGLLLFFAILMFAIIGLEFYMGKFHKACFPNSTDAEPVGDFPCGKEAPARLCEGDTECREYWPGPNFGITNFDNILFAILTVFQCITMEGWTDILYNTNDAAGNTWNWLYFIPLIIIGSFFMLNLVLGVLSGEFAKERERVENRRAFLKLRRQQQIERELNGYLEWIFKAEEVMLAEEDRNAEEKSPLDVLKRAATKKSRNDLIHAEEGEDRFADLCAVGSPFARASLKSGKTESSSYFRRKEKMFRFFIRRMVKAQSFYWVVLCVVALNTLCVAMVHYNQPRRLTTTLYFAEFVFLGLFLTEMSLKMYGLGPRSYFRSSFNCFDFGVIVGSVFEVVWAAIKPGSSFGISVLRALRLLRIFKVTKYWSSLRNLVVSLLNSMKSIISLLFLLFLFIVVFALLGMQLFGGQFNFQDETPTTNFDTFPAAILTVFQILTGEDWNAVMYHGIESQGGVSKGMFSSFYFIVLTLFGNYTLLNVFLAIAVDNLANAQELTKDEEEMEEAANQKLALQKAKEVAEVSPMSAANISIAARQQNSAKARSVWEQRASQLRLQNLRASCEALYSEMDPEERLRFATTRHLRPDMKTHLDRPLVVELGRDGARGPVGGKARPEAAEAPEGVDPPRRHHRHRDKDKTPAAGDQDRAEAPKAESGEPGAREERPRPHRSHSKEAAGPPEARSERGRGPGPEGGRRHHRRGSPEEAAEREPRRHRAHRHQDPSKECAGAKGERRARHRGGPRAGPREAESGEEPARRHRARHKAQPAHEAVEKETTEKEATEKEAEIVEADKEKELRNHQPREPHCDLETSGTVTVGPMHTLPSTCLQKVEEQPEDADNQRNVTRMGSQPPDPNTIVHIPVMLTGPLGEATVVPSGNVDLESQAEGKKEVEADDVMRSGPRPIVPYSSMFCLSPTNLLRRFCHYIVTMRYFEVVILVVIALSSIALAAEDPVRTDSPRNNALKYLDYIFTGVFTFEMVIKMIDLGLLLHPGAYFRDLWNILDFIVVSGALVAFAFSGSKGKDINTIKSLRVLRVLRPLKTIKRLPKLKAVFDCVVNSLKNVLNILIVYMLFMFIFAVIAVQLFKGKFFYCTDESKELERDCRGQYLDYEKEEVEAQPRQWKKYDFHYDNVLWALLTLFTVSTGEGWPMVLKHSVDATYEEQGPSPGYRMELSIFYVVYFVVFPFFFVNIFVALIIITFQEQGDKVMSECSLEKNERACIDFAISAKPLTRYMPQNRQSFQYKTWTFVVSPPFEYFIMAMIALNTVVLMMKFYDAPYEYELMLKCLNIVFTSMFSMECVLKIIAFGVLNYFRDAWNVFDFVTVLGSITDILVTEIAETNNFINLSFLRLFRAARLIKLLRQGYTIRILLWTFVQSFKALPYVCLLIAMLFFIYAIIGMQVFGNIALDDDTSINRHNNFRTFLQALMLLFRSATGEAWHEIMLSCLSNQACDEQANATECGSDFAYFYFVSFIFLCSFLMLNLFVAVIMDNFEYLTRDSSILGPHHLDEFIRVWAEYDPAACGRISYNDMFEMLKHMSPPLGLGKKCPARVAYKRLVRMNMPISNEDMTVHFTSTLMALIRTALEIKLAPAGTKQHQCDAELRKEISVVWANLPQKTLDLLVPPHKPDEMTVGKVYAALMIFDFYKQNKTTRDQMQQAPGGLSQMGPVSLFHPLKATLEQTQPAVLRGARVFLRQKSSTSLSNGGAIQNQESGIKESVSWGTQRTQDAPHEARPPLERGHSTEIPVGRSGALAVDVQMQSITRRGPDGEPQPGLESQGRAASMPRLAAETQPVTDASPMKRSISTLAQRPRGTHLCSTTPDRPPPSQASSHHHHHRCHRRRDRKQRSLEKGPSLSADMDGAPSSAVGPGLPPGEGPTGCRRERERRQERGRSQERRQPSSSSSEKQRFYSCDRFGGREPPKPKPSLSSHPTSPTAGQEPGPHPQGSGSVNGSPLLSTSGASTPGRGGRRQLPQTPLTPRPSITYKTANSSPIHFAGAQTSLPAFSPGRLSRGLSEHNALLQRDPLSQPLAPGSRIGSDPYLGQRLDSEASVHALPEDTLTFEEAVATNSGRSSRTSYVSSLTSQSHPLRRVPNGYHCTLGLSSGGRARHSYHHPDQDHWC
T2 sequence (P54289 25-956 partner limits assumed): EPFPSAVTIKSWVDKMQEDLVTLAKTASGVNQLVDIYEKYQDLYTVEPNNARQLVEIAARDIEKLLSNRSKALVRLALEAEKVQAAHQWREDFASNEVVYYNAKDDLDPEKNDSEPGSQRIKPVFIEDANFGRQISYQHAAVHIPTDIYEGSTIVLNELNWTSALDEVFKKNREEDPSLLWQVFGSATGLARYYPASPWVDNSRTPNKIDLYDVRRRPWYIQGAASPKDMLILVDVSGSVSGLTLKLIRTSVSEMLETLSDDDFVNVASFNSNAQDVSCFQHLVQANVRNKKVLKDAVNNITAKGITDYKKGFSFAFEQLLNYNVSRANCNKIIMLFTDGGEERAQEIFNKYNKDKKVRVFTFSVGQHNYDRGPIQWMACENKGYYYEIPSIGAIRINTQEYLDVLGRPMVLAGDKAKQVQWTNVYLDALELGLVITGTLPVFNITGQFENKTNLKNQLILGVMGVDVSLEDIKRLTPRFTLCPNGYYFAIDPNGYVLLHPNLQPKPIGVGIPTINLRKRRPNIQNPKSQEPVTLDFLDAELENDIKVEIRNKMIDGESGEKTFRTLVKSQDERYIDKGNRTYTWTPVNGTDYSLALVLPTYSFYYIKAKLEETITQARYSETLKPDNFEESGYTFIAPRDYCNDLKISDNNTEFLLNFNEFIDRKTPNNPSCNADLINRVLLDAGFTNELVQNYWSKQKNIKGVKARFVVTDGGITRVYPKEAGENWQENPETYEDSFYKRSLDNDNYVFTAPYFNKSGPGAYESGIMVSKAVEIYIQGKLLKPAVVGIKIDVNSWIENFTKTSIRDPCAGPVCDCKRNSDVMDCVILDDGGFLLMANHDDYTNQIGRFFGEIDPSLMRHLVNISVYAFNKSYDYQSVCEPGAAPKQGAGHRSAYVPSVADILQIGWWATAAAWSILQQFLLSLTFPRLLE
T2 sequence (P54289 957-1103 partner limits assumed): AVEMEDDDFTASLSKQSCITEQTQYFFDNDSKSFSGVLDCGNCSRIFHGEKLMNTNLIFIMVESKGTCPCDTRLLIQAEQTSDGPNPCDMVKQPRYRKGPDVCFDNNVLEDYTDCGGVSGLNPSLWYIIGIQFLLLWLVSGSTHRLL
T2 sequence (Q02641 whole entry partner): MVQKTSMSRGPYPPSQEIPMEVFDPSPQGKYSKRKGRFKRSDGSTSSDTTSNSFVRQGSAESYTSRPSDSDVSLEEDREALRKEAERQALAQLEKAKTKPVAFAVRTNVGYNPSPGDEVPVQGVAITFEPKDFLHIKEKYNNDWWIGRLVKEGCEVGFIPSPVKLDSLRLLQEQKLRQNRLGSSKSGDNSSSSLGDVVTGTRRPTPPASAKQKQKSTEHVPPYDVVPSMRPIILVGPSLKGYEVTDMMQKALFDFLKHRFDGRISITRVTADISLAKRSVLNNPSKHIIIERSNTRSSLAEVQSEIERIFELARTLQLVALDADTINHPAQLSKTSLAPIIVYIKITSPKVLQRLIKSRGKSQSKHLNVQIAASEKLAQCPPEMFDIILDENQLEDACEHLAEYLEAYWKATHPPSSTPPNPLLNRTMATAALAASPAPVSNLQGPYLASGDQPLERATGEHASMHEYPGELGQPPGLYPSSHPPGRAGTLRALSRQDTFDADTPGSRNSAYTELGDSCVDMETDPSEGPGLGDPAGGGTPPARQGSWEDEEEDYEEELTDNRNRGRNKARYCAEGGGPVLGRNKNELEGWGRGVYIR

For orientation: IC50 means the point on the concentration scale where inhibition reaches its midpoint. With `CC(C)C[C@@H](NC(=O)N1CCCCCC1)C(=O)NCCCC(c1ccc(F)cc1)c1ccc(F)cc1` [Example 2, (R)-Azepane-1-carboxylic acid {1-[4,4-bis-(4-fluoro-phenyl)-butylcarbamoyl]-3-methyl-butyl}-amide], the IC50 in assay [1] worked out at 290 nM.

For the compound `CC(C)C[C@H](NC1CCOCC1)C(=O)NCCCC(c1ccc(F)cc1)c1ccc(F)cc1` [Example 18, (S)-4-Methyl-2-(tetrahydro-pyran-4-ylamino)-pentanoic acid [4,4-bis-(4-fluoro-phenyl)-butyl]-amide], the IC50 in assay [2] was 2000 nM; in assay [1], 570 nM.

Take `CC(C)C[C@H](NC(C)C)C(=O)NCCCC(c1ccc(F)cc1)c1ccc(F)cc1` [Example 19, (S)-2-Isopropylamino-4-methyl-pentanoic acid [4,4-bis-(4-fluoro-phenyl)-butyl]-amide monohydrochloride]: the figures for the IC50 in assay [2] and in assay [1] were 1100 nM and 660 nM, respectively.

For `CC(C)C[C@@H](C(=O)NCCCC(c1ccc(F)cc1)c1ccc(F)cc1)N(C)C` [Example 20, (S)-2-Dimethylamino-4-methyl-pentanoic acid [4,4-bis-(4-fluoro-phenyl)-butyl]-amide monohydrochloride], in assay [2], the inhibition at 1 µM was 25% and the inhibition at 10 µM is 92%. Further, in assay [1], the IC50 is 470 nM.

With `CC(C)C[C@@H](C(=O)NCCCC(c1ccc(F)cc1)c1ccc(F)cc1)N(C)C1CCCCC1` [Example 21, (S)-2-(Cyclohexyl-methyl-amino)-4-methyl-pentanoic acid [4,4-bis-(4-fluoro-phenyl)-butyl]-amide monohydrochloride], in assay [2], the inhibition at 1 µM came out at 71% and the inhibition at 10 µM was found to be 94%. Further, in assay [1], the IC50 worked out at 270 nM.

Consider `CC(C)C[C@@H](C(=O)NCCCC(c1ccc(F)cc1)c1ccc(F)cc1)N1CCOCC1` [Example 23, (S)-4-Methyl-2-morpholin-4-yl-pentanoic acid [4,4-bis-(4-fluoro-phenyl)-butyl]-amide monohydrochloride], for which, in assay [2], the inhibition at 1 µM turned out to be 35% and the inhibition at 10 µM is 89%. Also, the IC50 in assay [1] came to 130 nM.

In the case of `CC(C)C[C@@H](C(=O)NCCC(c1ccccc1)c1ccccc1)N(C)C1CCCCC1` [Example 25, (S)-2-(Cyclohexyl-methyl-amino)-4-methyl-pentanoic acid (3,3-diphenyl-propyl)-amide monohydrochloride], the IC50 is 990 nM in assay [2] and 800 nM in assay [1].

Consider `CC(C)C[C@@H](C(=O)NCCCC(c1ccc(F)cc1)c1ccc(F)cc1)N(C)C1CCOCC1` [Example 27, (S)-4-Methyl-2-[methyl-(tetrahydro-pyran-4-yl)-amino]-pentanoic acid [4,4-bis-(4-fluoro-phenyl)-butyl]-amide monohydrochloride], for which the IC50 in assay [2] is 1200 nM; in assay [1] it was 450 nM.

On to `CC(C)C[C@@H](NC(=O)N1CCCCCC1)C(=O)N1CCN(C(c2ccc(F)cc2)c2ccc(F)cc2)CC1` [Example 34, (R)-Azepane-1-carboxylic acid {1-(4-[bis-(4-fluoro-phenyl)-methyl]-piperazine-1-carbonyl}-3-methyl-butyl)-amide], for which the IC50 is 1890 nM in assay [2] and 630 nM in assay [1].

`CC(C)C[C@@H](CN1CCN(C(c2ccc(F)cc2)c2ccc(F)cc2)CC1)NC(=O)OC(C)(C)C` [Example 35, (S)-(1-{4-[Bis-(4-fluoro-phenyl)-methyl]-piperazin-1-ylmethyl}-3-methyl-butyl)-carbamic acid tert-butyl ester]: the IC50 is 500 nM in assay [2] and 360 nM in assay [1].

In the case of `CC(C)C[C@@H](C(=O)N1CCN(C(c2ccc(F)cc2)c2ccc(F)cc2)CC1)N1CCCCC1` [Example 37, (S)-1-{4-[Bis-(4-fluoro-phenyl)-methyl]-piperazin-1-yl}-4-methyl-2-piperidin-1-yl-pentan-1-one], the IC50 in assay [2] was 2000 nM; in assay [1], 1400 nM.

Regarding `CC(C)C[C@H](NC(C)C)C(=O)N1CCN(C(c2ccc(F)cc2)c2ccc(F)cc2)CC1` [Example 49, (S)-1-{4-[Bis-(4-fluoro-phenyl)-methyl]-piperazin-1-yl}-2-isopropylamino-4-methyl-pentan-1-one monohydrochloride], the IC50 in assay [2] was 3200 nM; in assay [1], 1000 nM.

Take `CC(C)C[C@H](NCc1ccccc1)C(=O)N1CCN(C(c2ccc(F)cc2)c2ccc(F)cc2)CC1` [Example 62, (S)-2-Benzylamino-1-{4-[bis-(4-fluoro-phenyl)-methyl]-piperazin-1-yl}-4-methyl-pentan-1-one]: in assay [2], the inhibition at 10 µM is 99%. Besides, in assay [1], the IC50 came out at 420 nM.

With `CC(C)C[C@H](NC1CCOCC1)C(=O)N1CCN(C(c2ccc(F)cc2)c2ccc(F)cc2)CC1` [Example 63, (S)-1-{4-[Bis-(4-fluoro-phenyl)-methyl]-piperazin-1-yl}-4-methyl-2-(tetrahydro-pyran-4-ylamino)-pentan-1-one], the IC50 in assay [1] was determined as 1100 nM.

As for `CC(C)N[C@H](C(=O)NCCCC(c1ccc(F)cc1)c1ccc(F)cc1)C(C)C` [Example 65, (S)-N-[4,4-Bis-(4-fluoro-phenyl)-butyl]-2-isopropylamino-3-methyl-butyramide], the inhibition at 10 µM in assay [2] amounted to 83%. Also, the IC50 in assay [1] was found to be 680 nM.

In the case of `CCC(C)N[C@H](C(=O)NCCCC(c1ccc(F)cc1)c1ccc(F)cc1)C(C)C` (stereo partly drawn) [Example 66, (S)-N-[4,4-Bis-(4-fluoro-phenyl)-butyl]-2-sec-butylamino-3-methyl-butyramide], in assay [2], the inhibition at 1 µM came out at 34% and the inhibition at 10 µM came to 94%. The IC50 in assay [1] was 510 nM.

For `CC(C)C[C@@H](C(=O)NCCCC(c1ccc(F)cc1)c1ccc(F)cc1)N(C)C(C)C` [Example 68, (S)-2-(Isopropyl-methyl-amino)-4-methyl-pentanoic acid [4,4-bis-(4-fluoro-phenyl)-butyl]-amide], the inhibition at 10 µM in assay [2] worked out at 97%. Further, the IC50 in assay [1] stood at 530 nM.

The record behind these values is patent US6458781B1, “Substituted diarylalkyl amides as calcium channel antagonists” (priority 1998, dated 2002).
